The values that follow come from PubChem BioAssay (NCI).

Holding throughout (assay): inhibition of tumour cell growth, NCI panel, 48 h
Assay [1] deals with MOLT-4 leukemia.
For assay [2], the system named is 786-0 renal.
The test system of assay [3] is SW-620 colon.
Assay [4] deals with UACC-257 melanoma.
In assay [5] the test system is NCI/ADR-RES ovarian.
In assay [6] the test system is U251 CNS.
For assay [7], the system named is OVCAR-8 ovarian.
Assay [8] has as its system HCT-15 colon.
The test system of assay [9] is SN12C renal.
Assay [10] relates to M14 melanoma.
The subject of assay [11] is ACHN renal.
For assay [12], the system named is UO-31 renal.
Assay [13] relates to HCT-116 colon.
In assay [14] the test system is SK-MEL-28 melanoma.
In assay [15] the test system is T-47D breast.
Assay [16] concerns EKVX NSCLC.
The subject of assay [17] is OVCAR-3 ovarian.

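Assay format: 96-well plates, 48-hour exposure. TGI: concentration producing complete growth inhibition.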

As to `O=S(=O)(O)C(=Nc1cccc(Cc2ccccc2)c1)Nc1cccc(Cc2ccccc2)c1`, the TGI in [1] was 83.4 µM; in assay [2] it was 29 µM; in [3], 52.1 µM; in assay [4] it was 48.7 µM; in assay [5], 35.2 µM; in assay [6] it was 37.8 µM. For the same compound, the TGI turned out to be 36.2 µM in assay [7]; 35.2 µM in assay [8]; 37.2 µM in [9]; 31.8 µM in [10]; 38.7 µM in assay [11]; 29.5 µM in assay [12]. For the same compound, the TGI in assay [13] came to 28.2 µM; in assay [14] it was 38.8 µM; in [15] it was 32.1 µM; in assay [16], 30.9 µM.

With `CCCCc1ccc(Nc2nc(SC)c3[nH]cnc3n2)cc1`, the TGI in [1], in [2], in [3], in assay [4], in assay [5] and in assay [6] was above 100 µM throughout. Besides, the TGI in assay [7], in assay [8], in assay [9], in [10], in assay [11] and in [12] was above 100 µM throughout. In addition, the TGI is above 100 µM in [13]; above 93.5 µM in [17]; above 100 µM in assay [14]; above 100 µM in assay [15]; above 100 µM in assay [16].

Regarding `Cn1c(O)c(C=Nc2ccccc2[N+](=O)[O-])c(=O)n(C)c1=O`, the TGI in [1], in assay [2], in assay [3], in assay [4], in assay [5] and in assay [6] was above 100 µM each time. For the same compound, the TGI in [7], in assay [8], in assay [9], in assay [10], in assay [11] and in assay [12] was above 100 µM each time. In addition, the TGI in assay [13], in [17], in assay [15] and in [16] was above 100 µM in each case.

`CCCCCCC(=O)O[C@H]1CC[C@H]2[C@@H]3CCC4C/C(=N/NC(=O)c5cccc6c(=O)c7ccccc7[nH]c56)C=C(C)[C@]4(C)[C@H]3CC[C@]12C` (some centres not stated): the TGI in assay [1], in assay [2], in assay [3], in assay [4], in assay [5] and in [6] was above 25 µM each time. Moreover, the TGI in assay [7], in assay [8], in assay [9], in assay [10], in assay [11] and in [12] was above 25 µM each time. Further, the TGI in [13], in assay [17], in assay [15] and in assay [16] was above 25 µM throughout.

Consider `CC[C@]1(Cc2ccc(OC)c(OC)c2)C=[N+]([O-])O[C@H](OC2CCCC2(c2ccccc2)c2ccccc2)[C@@H]1OC(C)=O` (some centres not stated), for which the TGI in assay [1] was above 23.8 µM; in assay [2], 3.67 µM; in assay [3], above 100 µM; in assay [4], 19.2 µM; in assay [5], 14.8 µM; in [6], above 62 µM. Besides, the TGI in [7] was 7.98 µM; in assay [8] it was 15.8 µM; in assay [9], above 39.3 µM; in [10] it was 14.9 µM; in [11] it was 10.2 µM; in assay [12], 12.6 µM. The TGI in assay [13] stood at 6.16 µM; in assay [17], 4.13 µM; in [14] it was 4.81 µM; in [15], 12.4 µM; in [16], 25.3 µM.

For `COc1cc(OC)nc(-n2c(N)c(C#N)c3ccc([N+](=O)[O-])cc3c2=O)n1`, the TGI in [1], in [2], in assay [3], in [4], in assay [5] and in [6] was above 100 µM throughout. The TGI in assay [7], in assay [8], in [9], in assay [10], in [11] and in assay [12] was above 100 µM each time. Besides, the TGI in assay [13], in assay [17], in [14], in assay [15] and in [16] was above 100 µM each time.

With `C=CCC1(OC(C)=O)C2OC(=O)C1(O)OCC2O` (configuration not stated), the TGI in assay [1], in [2], in assay [3], in assay [4], in assay [5] and in assay [6] was above 100 µM in each case. Besides, the TGI in assay [7], in [8], in assay [9], in [10], in assay [11] and in [12] was above 100 µM each time. Besides, the TGI in [13], in assay [17], in [14], in assay [15] and in assay [16] was above 100 µM in each case.

Turning to `C/C=C\C(CC(=O)NCCC1CN(S(=O)(=O)c2ccc(C)cc2)c2ccccc21)CC(=O)OC` (configuration not stated), the TGI in [1], in [2], in assay [3], in assay [4], in [5] and in [6] was above 100 µM in each case. Also, the TGI in assay [7], in assay [8], in assay [10], in assay [11], in assay [12] and in [13] was above 100 µM each time. For the same compound, the TGI in assay [17], in assay [14], in assay [15] and in assay [16] was above 100 µM each time.
